Results from patent US10993936B2, “Method of treating one or more symptoms of pulmonary fibrosis by administering inhibitors of nicotinamide phosphoribotransferase” (Arizona Board of Regents on Behalf of the University of …, priority 2017, dated 2021).

Key:
IPF fibroblasts = test: staurosporine-induced apoptosis in IPF lung myofibroblasts; format: cell-based, human; details: IPF fibroblasts pre-treated with FK-866; FIG. 11B
Text: Human lung tissue and fibroblasts were isolated from the lungs of patients with a confirmed diagnosis of IPF as previously described (18), under an approved protocol by the Institutional Review Board. Fibroblasts were isolated and evaluated for apoptosis, senescence, and ROS levels by immunofluorescence, immunohistochemistry, and/or biochemical assays.
Cells were lysed using caspase lysis buffer and analyzed for activated caspase 3 using the BioVision Caspase 3 Fluorometric Assay Kit according to the manufacturer's instructions (BioVision, Inc, Milpitas Calif.).
Nampt contributes to mouse and human IPF fibroblasts resistance to apoptosis. Staurosporine (300 nM, 8 h)-induced expression of apoptotic markers, cleaved caspase 3 and PARP (FIG. 11A) was increased in lung fibroblasts isolated from Nampt+/− compared with WT mice.

H2O2-induced apoptosis = H2O2-induced apoptosis defined by the TUNEL assay; format: cell-based; details: FIG. 14
Procedure: Slices were first incubated with anti-αSMA overnight at 4° C. After the TUNEL protocol, slides were mounted in DAPI-containing media (Vector Labs) and cells were visualized on a Zeiss fluorescent microscope. TUNEL-positive cells were counted per field in 15-20 fields and normalized to total cells from the DAPI stain.
FIGS. 12A-D show chemical structure of the NAMPT inhibitor, FK-866 (FIG. 12A) which is divided into three regions (FIG. 12B) and varied by replacing with N-heterocycles to generate novel FK866 analogs: MS-1-82 (FIG. 12C), Rari049 (FIG. 12D), Alpii135 (FIG. 12E); FIG. 13 is a bar graph showing normalized NAMPT activity in the present of FK866 and FK analogues MS-1-82, Rari049, Alpii135 at […] concentrations; FIG. 14 is a bar graph showing the role of Nampt enzymatic activity in H2O2-induced apoptosis defined by the TUNEL assay.

[1] = MCT-PH preventive therapy study; format: in vivo; details: preliminary studies
Text: To generate functional analogs of the NAMPT inhibitor FK-866, the FK-866 structure was divided into three regions and varied by replacing with N-heterocycles to generate FK866 analogs.

Compound | staurosporine-induced apoptosis (IPF fibroblasts) | H2O2-induced apoptosis (H2O2-induced apoptosis) | hyper-trophy-ratio of RV and LV plus septal-S weight (RVH-RV) [1] | right ventricular systolic pressure (RVSP) [1]
O=C(/C=C/c1cccnc1)NCCCCC1CCN(C(=O)c2ccccc2)CC1 [FK-866, (E)-N-[4-(1-Benzoylpiperidin-4-yl)butyl]-3-pyridin-3-ylprop-2-enamide] | restored apoptosis | blocks H2O2-induced apoptosis | – | –
O=C(/C=C/c1cccnc1)NCCCCCCn1c(-c2ccccc2)cc2ccccc21 [Rari049] | – | – | reducing | reducing
